Assays:
[1] = Particle size and polydispersity index of nanoparticle compositions (Zetasizer Nano ZS); assay type: physicochemical; settings: for PDI / Size (nm): Table 1A; for Size (nm): lipid:DSPC:cholesterol:PEG-DMG 50:10:38.5:1.5 mol %; for PDI (Polydispersity index) / Size: lipid nanoparticle, ±SD within one assay run (Table 37)
Method in brief: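 Zetasizer Nano ZS; samples in 1×PBS; read-out: particle size plus polydispersity index.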

[2] = Encapsulation efficiency of RNA (QUANT-IT RIBOGREEN RNA assay); assay type: physicochemical; settings: for EE (%): Table 1A; for % Encapsulation: lipid nanoparticle, ±SD within one assay run (Table 37)
Method in brief: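 RiboGreen fluorescence (ex ~480, em ~520 nm) compared between intact samples and Triton X-100-lysed samples after 15 min at 37 °C in TE buffer, pH 7.5. Percent free RNA is the blank-corrected intact/disrupted ratio.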

[3] = Apparent (surface) pKa of the LNP formulation (TNS assay); assay type: physicochemical
Method in brief: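 Fluorescence of TNS probe added to LNP samples (mRNA 0.04 mg/mL) was read across 21 buffers of pH about 3-12, triplicate per pH. The inflection point of the sigmoidal fluorescence-vs-pH curve, […], gives apparent pKa; method validated in 1× PBS and Tris/sucrose buffer.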

luciferase (Luc) mRNA [4] = assay: Luc expression, whole body bioluminescence after intravenous administration to mice; assay type: in vivo; settings: for Total Flux 3 hours / Total Flux 6 hours / Total Flux 24 hours: Luc mRNA; for luciferase activity relative to MC3 LNP control: intravenous, 0.5 mg/kg (mRNA dose)
Method in brief: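 Bioluminescence, read as region-of-interest total flux at 3, 6 and 24 h, followed a single 0.5 mg/kg intravenous dose of Luc mRNA-loaded nanoparticles in mice (n=6). Luciferin substrate (200 μL, 15 mg/mL in PBS) was injected intraperitoneally into CD-1 mice 15 minutes ahead of each imaging point.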

luciferase (Luc) mRNA [5] = assay: Luc expression in liver, lung, spleen and femur 6 hours after intravenous administration; assay type: in vivo; settings: mice, 0.5 mpk; for Total Flux Femur / Total Flux Liver / Total Flux Lung / Total Flux Spleen: intravenous
Method in brief: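 LNP-formulated mRNA given IV to mice (n=3) at 0.5 mpk; at 6 h, bioluminescence imaged ex vivo 15 min after IP D-luciferin (15 mg/mL, 200 μL), organs imaged within 25 min. Values are total flux by region of interest.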

IL-6, IP-10 = assay: Cytokine induction in mice upon intravenous administration; assay type: in vivo; design: Cytokine induction IL-6 / Cytokine induction IP-10: unit not given here; settings: 0.5 mpk, 6 hours; for IL-6 induction: i.v., in words; for Cytokine induction IL-6 / Cytokine induction IP-10: intravenous
Source text: The introduction of foreign material into a mammalian body induces an innate immune response that promotes cytokine production. Such immune responses to, for example, nanoparticle compositions including therapeutic and/or prophylactics, are undesirable. The induction of certain cytokines is thus measured to evaluate the […] of nanoparticle compositions. The concentrations of various cytokines in mice upon intravenous administration of nanoparticle compositions presented in Table 1A at a dosage of 0.5 mpk was measured at 6 hours. The standard MC3 formulation and a PBS control were also tested. As is evident in Table 7, IL-6 induction was highest for compositions including Compounds 1, 3, 9, 19, and 26, while IP-10 induction was highest for compositions including Compounds 3, 4, 7, 20, and 26. IL-6 induction was lowest for compositions including Compounds 4, 11, 12, and 28. IP-10 induction was lowest for compositions including Compounds 10, 11, 12, 13, 15, 17, and 18.

sC5b-9 = assay: Complement activation in vitro (sC5b-9 levels); assay type: cell-based; settings: human cells contacted in vitro; for sC5b-9 levels relative to saline: in words
Procedure: Complement activation assists in the clearance of pathogens from an organism. As it is undesirable that a subject's body recognize a nanoparticle composition as a foreign invader, low complement system activation upon administration of such a composition is preferred. The complex sC5b-9 is a marker for the activation of the complement system. Thus, human cells were contacted in vitro with nanoparticle compositions according to Table 1A and were evaluated for sC5b-9 levels.

[6] = Chemical stability of lipids in ethanol (lipid purity); assay type: physicochemical
Procedure: Ester linkages were previously reported to trigger metabolism by esterases in vivo. (See Fukami, T. et al. Drug Metab. Pharmacokinet. 2012, 27, 466-477, the content of which is incorporated by reference herein in its entirety). […] (See Maier M. A., Mol. Ther. 2013, 21, 1570-1578, the content of which is incorporated herein in its entirety) First, the chemical stability of the lipids was evaluated by measuring ethanol stability at room temperature and 37° C. (Table 39). […] LNPs formed with compound 138 were larger, with a surface pKa>7. […] Removal of one ester function (compound 136) afforded LNPs with improved physiochemical characteristics and lower LNP surface pKa.

[7] = Lipid clearance: lipid level in mouse liver tissue (LC-MS/MS); assay type: in vivo
Procedure: Quantification of Lipid by LC-MS/MS: Liver samples were homogenized following addition of 19 eq. (w/v) of water (DF=20). Protein was precipitated and analyzed against calibration standards prepared in matching blank. Chromatographic separation and quantification was accomplished with a LC-MS/MS System. Samples were injected and separated via HPLC A triple-quadrupole MS/MS system operated in positive ion mode was used for signal detection.

[8] = lipid nanoparticle, ±SD within one assay run (Table 37)

| Structure (SMILES) | PDI [1] | Size (nm) [1] [nm] | EE (%) [2] [%] | pKa ([3]; Table 1A) | Total Flux 3 hours (luciferase (Luc) mRNA [4]; mice, i.v., 0.5 mg/kg) | Total Flux 6 hours (luciferase (Luc) mRNA [4]; mice, i.v., 0.5 mg/kg) | Total Flux 24 hours (luciferase (Luc) mRNA [4]; mice, i.v., 0.5 mg/kg) | Total Flux Femur (luciferase (Luc) mRNA [5]) | Total Flux Liver (luciferase (Luc) mRNA [5]) | Total Flux Lung (luciferase (Luc) mRNA [5]) | Total Flux Spleen (luciferase (Luc) mRNA [5]) | IL-6 induction (IL-6, IP-10) | Cytokine induction IL-6 (IL-6, IP-10) | Cytokine induction IP-10 (IL-6, IP-10) | Fold increase in sC5b-9 levels versus saline (sC5b-9) | sC5b-9 levels relative to saline (sC5b-9) | PDI (Polydispersity index) [1] | Size [1] [nm] | % Encapsulation [2] [%] | pKa [3, 8] | also measured |
| --- | --- | --- | --- | --- | --- | --- | --- | --- | --- | --- | --- | --- | --- | --- | --- | --- | --- | --- | --- | --- | --- |
| CCCCCCCCCCCCCCCCCCN(CCO)CCCCCCCC(=O)OC(CCCCCCCC)CCCCCCCC [Compound 1, Heptadecan-9-yl 8-((2-hydroxyethyl)(octadecyl)amino)octanoate] | 0.091 | 72.7 | 97.04 | 6.50 | 3.48E+09 | 3.40E+09 | 4.10E+08 | 7.52E+05 | 4.02E+08 | 1.72E+06 | 4.27E+06 | highest | 267.24 | 687.14 | 0.82 | slightly decrease | – | – | – | – | Fold increase in total body Luc Flux relative to MC3 at 6 h (luciferase (Luc) mRNA [4]; Table 3A, i.v. administration): 0.40 |
| CCCCCCCCCOC(=O)CCCCCCCN(CCCCCCCC(=O)OC(CCCCCCCC)CCCCCCCC)CCOC(C)=O [Compound 9, Heptadecan-9-yl 8-((2-acetoxyethyl)(8-(nonyloxy)-8-oxooctyl)amino) octanoate] | 0.12 | 68.5 | 75.7 | 4.87 | 1.43E+08 | 3.46E+06 | 1.01E+06 | 2.57E+04 | 4.30E+05 | 2.56E+04 | 5.51E+04 | highest | 317.45 | 366.53 | 0.92 | slightly decrease | – | – | – | – | flux at all timepoints measured (luciferase (Luc) mRNA [4]; mice, i.v., 0.5 mg/kg, 3, 6 and 24 hour, in words): significantly lower flux; Flux in the spleen (luciferase (Luc) mRNA [5]; i.v., in words): lowest |
| CCCCCCCCCOC(=O)CCCCCCCN(CCCCCCCC(=O)OC(CCCCCCCC)CCCCCCCC)CCN(C)C [Compound 14, Heptadecan-9-yl 8-((2-(dimethylamino)ethyl)(8-(nonyloxy)-8-oxooctyl)amino)octanoate] | 0.15 | 130.1 | 95.24 | 6.58 | 4.43E+08 | 2.29E+09 | 1.39E+08 | 4.91E+06 | 1.91E+08 | 4.74E+06 | 1.92E+08 | – | 75.29 | 621.49 | – | – | 0.15 ± 0.07 | 130.1 ± 3.5 | 95.2 ± 0.5 | 6.58 ± 0.11 | luciferase activity relative to MC3 LNP control (luciferase (Luc) mRNA [4]; mice): complete loss of delivery efficiency; Lipid Purity ([6]; t = 0): 92.08%; Lipid Purity ([6]; t = 96 h, 25° C.): 92.07%; Lipid Purity ([6]; t = 96 h, 37° C.): 91.90% |
| CCCCCCCCCOC(=O)CCCCCCCN(CCCCCCCC(=O)OC(CCCCCCCC)CCCCCCCC)CCCNC(=O)C(C)(C)COC [Compound 281, Heptadecan-9-yl 8-((3-(3-methoxy-2,2-dimethylpropanamido)propyl)(8-(nonyloxy)-8-oxooctyl)amino)octanoate] | – | – | – | – | – | – | – | – | – | – | – | – | – | – | – | – | 0.14 ± 0.05 | 93.8 ± 5.6 | 96.9 ± 1.2 | 6.79 ± 0.37 | luciferase activity relative to MC3 LNP control (luciferase (Luc) mRNA [4]; mice): two-fold lower; % dose remaining Mouse liver tissue, 24 h ([7]; CD-1 mouse liver 24 h after 0.5 mg/kg bolus dose mRNA, n = 5 ± S.D.): 66 ± 22%; original dose remaining in liver tissue 24 hours post dose ([7]; mice, intravenous): 66%; Lipid Purity ([6]; t = 0): 95.17%; Lipid Purity ([6]; t = 96 h, 25° C.): 95.15%; Lipid Purity ([6]; t = 96 h, 37° C.): 96.47% |
